# Laboratory results: patent publication US20170313664A1, “NOVEL FORM OF PYRIMIDINE COMPOUND HAVING DIBENZYLAMINE STRUCTURE” (KOWA COMPANY, LTD., priority 2013, published 2017)
# Assay: Heat stability test (remaining percentage by HPLC peak area after preservation in a glass bottle)
# Type: physicochemical
# Conditions: for Remaining percentage (%) of pyrimidine compound (1): HPLC area percentage, 242 nm
# Protocol: A test compound was placed in a glass bottle, and it was then preserved for a predetermined period of time under temperature conditions of 80° C., 100° C., or 120° C. Thereafter, the remaining percentage (%) of the pyrimidine compound (1) in the test compound was measured.
# The remaining percentage was obtained by measuring the rate of the pyrimidine compound (1) contained in the test compound according to high performance liquid chromatography and expressing the measured value as a peak area percentage. In the measurement according to high performance liquid chromatography, an ODS column was used as a column, and a mixture of two solvents, namely, a 0.1% TFA aqueous solution and a 0.1% TFA acetonitrile solution, was used as a solvent. The detection wavelength was set at 242 nm.
# From the obtained area percentage of the pyrimidine compound (1), the remaining percentage was calculated according to the following calculation formula.
# Remaining percentage (%)=Area percentage of pyrimidine compound (1) after preservation/area percentage of pyrimidine compound (1) before preservation×100
# As test compounds, the crystal obtained in Example 1-3 (a crystal of the pyrimidine compound (1) hydrochloride) and a free form of the pyrimidine compound (1) were used.
# [1] = After preservation at 80° C. for 72 hours
# [2] = After preservation at 100° C. for 24 hours
# [3] = After preservation at 120° C. for 16 hours
Compound,Remaining percentage (%) of pyrimidine compound (1) [1] [%],Remaining percentage (%) of pyrimidine compound (1) [2] [%],Remaining percentage (%) of pyrimidine compound (1) [3] [%],Heat stability (overall assessment) (conclusion from the test results of Table 8 (80-120° C.))
"CCN(C[C@H]1CC[C@H](CC(=O)O)CC1)c1ccc(C(F)(F)F)cc1CN(c1ncc(OCCS(C)(=O)=O)cn1)[C@@H](C)c1cc(C(F)(F)F)cc(C(F)(F)F)c1.Cl [(S)-trans-{4-[({2-[({1-[3,5-bis(trifluoromethyl)phenyl]ethyl}{5-[2-(methylsulfonyl)ethoxy]pyrimidin-2-yl}amino)methyl]-4-(trifluoromethyl)phenyl}(ethyl)amino)methyl]cyclohexyl}acetic acid monohydrochloride]",100.0,100.0,99.5,excellent heat stability
"CCN(C[C@H]1CC[C@H](CC(=O)O)CC1)c1ccc(C(F)(F)F)cc1CN(c1ncc(OCCS(C)(=O)=O)cn1)[C@@H](C)c1cc(C(F)(F)F)cc(C(F)(F)F)c1 [Free form of pyrimidine compound (1), (S)-trans-{4-[({2-[({1-[3,5-bis(trifluoromethyl)phenyl]ethyl}{5-[2-(methylsulfonyl)ethoxy]pyrimidin-2-yl}amino)methyl]-4-(trifluoromethyl)phenyl}(ethyl)amino)methyl]cyclohexyl}acetic acid]",99.5,89.3,71.5,–
